In brackets after ≈: the same amount, converted by molar mass.

Assay [1] concerns Pseudomonas aeruginosa. The assay can be described thus: Antibacterial activity against Pseudomonas aeruginosa MTCC 2453 incubated overnight by broth dilution technique. It counts as functional, organism-based. On the technique in general: Broth dilution looks for growth in wells or tubes with falling amounts of substance.
The subject of assay [2] is Enterococcus faecalis. As to the kind of experiment: Antibacterial activity against Enterococcus faecalis MTCC 439 incubated overnight by broth dilution technique. It counts as functional, organism-based.
Assay [3] concerns Escherichia coli. The assay can be described thus: Antibacterial activity against Escherichia coli ATCC 25922 incubated overnight by broth dilution technique. It counts as functional, organism-based.
Assay [4] deals with Klebsiella pneumoniae. As to the kind of experiment: Antibacterial activity against Klebsiella pneumoniae ATCC 700603 incubated overnight by broth dilution technique. It counts as functional, organism-based.
In the next assay the test system is Streptococcus pneumoniae. The assay can be described thus: Antibacterial activity against Streptococcus pneumoniae MTCC 655 incubated overnight by broth dilution technique. It counts as functional, organism-based.
In the next assay the test system is Salmonella enterica. As to the kind of experiment: Antibacterial activity against Salmonella enterica MTCC 3224 incubated overnight by broth dilution technique. It counts as functional, organism-based.
The test system of a further assay is Micrococcus luteus. The assay can be described thus: Antibacterial activity against Micrococcus Luteus ATCC 398 incubated for 24 hrs. It counts as functional.
For assay [5], the system named is Staphylococcus aureus. As to the kind of experiment: Antibacterial activity against Staphylococcus aureus ATCC 29737 incubated for 24 hrs. It counts as functional.
The test system of a further assay is Proteus vulgaris. As to the kind of experiment: Antibacterial activity against Proteus vulgaris ATCC […] incubated for 24 hrs by broth dilution method. The format is functional.
In the next assay the test system is Bacillus spizizenii. The assay can be described thus: Antibacterial activity against Bacillus subtilis ATCC 6633 incubated for 24 hrs by broth dilution method. It counts as functional.
The test system of a further assay is Pseudomonas fluorescens. As to the kind of experiment: Antibacterial activity against Pseudomonas fluorescens NCIM 2173 incubated for 24 hrs. The format is functional.
In assay [6] the test system is Sphingomonas paucimobilis. As to the kind of experiment: Antibacterial activity against Flavobacterium devorans ATCC 10829 incubated for 24 hrs. It counts as functional.
Assay [7] concerns Escherichia coli. As to the kind of experiment: Antibacterial activity against Escherichia coli ATCC 25922 incubated for 24 hrs by broth dilution method. It counts as functional.
Assay [8] has as its system Escherichia coli. As to the kind of experiment: Antibacterial activity against Escherichia coli NCIM 2256 incubated for 24 hrs. The format is functional.
Assay [9] relates to Staphylococcus aureus. The assay can be described thus: Antibacterial activity against Staphylococcus aureus ATCC 9144 incubated for 24 hrs by broth dilution method. It counts as functional.
The next assay concerns Bacillus cereus. As to the kind of experiment: Antibacterial activity against Bacillus cereus ATCC 6630 incubated for 24 hrs. The format is functional.
Assay [10] relates to Escherichia coli. The assay can be described thus: Antibacterial activity against Escherichia coli JM109 after overnight incubation by CLSI M7-A9 based method. It counts as functional.
Assay [11] deals with Staphylococcus aureus. As to the kind of experiment: Antibacterial activity against Staphylococcus aureus CIP 6525 after overnight incubation by CLSI M7-A9 based method. The format is functional.
Assay [12] relates to Escherichia coli. The assay can be described thus: Antibacterial activity against Escherichia coli ATCC 25922 after overnight incubation by CLSI M7-A9 based method. It counts as functional.
The test system of assay [13] is Enterococcus faecalis. As to the kind of experiment: Antibacterial activity against Enterococcus faecalis ATCC 29212 after overnight incubation by CLSI M7-A9 based method. It counts as functional.
In assay [14] the test system is Staphylococcus aureus. The assay can be described thus: Antibacterial activity against Staphylococcus aureus assessed as inhibition zone at 1 mg/ml measured after overnight incubation by disc diffusion method. The format is functional. The conditions noted are these: read-out: IZ. A general note: Agar diffusion results depend on both activity and mobility in agar.

In assay [15] the test system is Pseudomonas aeruginosa. As to the kind of experiment: Antibacterial activity against Pseudomonas aeruginosa assessed as inhibition zone at 1 mg/ml measured after overnight incubation by disc diffusion method. It counts as functional. Conditions: read-out: IZ.
In another assay the test system is Bacillus subtilis. As to the kind of experiment: Antibacterial activity against Bacillus subtilis assessed as inhibition zone at 1 mg/ml measured after overnight incubation by disc diffusion method. It counts as functional. Conditions: read-out: IZ.
Assay [16] has as its system Escherichia coli. As to the kind of experiment: Antibacterial activity against Escherichia coli assessed as inhibition zone at 1 mg/ml measured after overnight incubation by disc diffusion method. The format is functional. The conditions noted are these: read-out: IZ.
Assay [17] relates to Klebsiella pneumoniae. As to the kind of experiment: Antibacterial activity against Klebsiella pneumoniae MTCC 618 incubated for 24 hrs by microdilution method. It counts as functional.

As a reminder, the IC50 is the concentration at which inhibition is half-maximal. Read a high IC50 as a need for much substance. For the molecule `c1ccc(-n2cc(COc3cccc4cccnc34)nn2)cc1`, the IC50 with Pseudomonas aeruginosa [1], in the assay on Enterococcus faecalis [2], in the assay on Escherichia coli [3], in the assay with Klebsiella pneumoniae [4], with Streptococcus pneumoniae and in the assay on Salmonella enterica was 106 µg/mL (≈ 350 µM) each time.

Usually MIC stands for the least concentration at which growth counts as inhibited. Regarding `O=C(N[C@H](CO)[C@H](O)c1ccc([N+](=O)[O-])cc1)C(Cl)Cl` [CHLORAMPHENICOL], the minimal inhibitory concentration (MIC) in the assay with Micrococcus luteus was found to be 2 µg/mL (≈ 6.19 µM); with Staphylococcus aureus [5], 2 µg/mL (≈ 6.19 µM); with Proteus vulgaris, 1.56 µg/mL (≈ 4.83 µM); against Bacillus spizizenii, 1.56 µg/mL (≈ 4.83 µM); with Pseudomonas fluorescens, 2 µg/mL (≈ 6.19 µM); in [6], 2 µg/mL (≈ 6.19 µM). The MIC in the assay with Escherichia coli [7] turned out to be 1.56 µg/mL (≈ 4.83 µM); against Escherichia coli [8] it was 2 µg/mL (≈ 6.19 µM); in the assay on Staphylococcus aureus [9], 1.56 µg/mL (≈ 4.83 µM); in the assay with Bacillus cereus, 2 µg/mL (≈ 6.19 µM).

Turning to `Cc1ccc(-n2cc(COc3cccc4cccnc34)nn2)cc1`, the IC50 in the assay on Pseudomonas aeruginosa [1], in the assay with Enterococcus faecalis [2], with Escherichia coli [3], in the assay with Klebsiella pneumoniae [4], in the assay on Streptococcus pneumoniae and in the assay on Salmonella enterica was 113 µg/mL (≈ 356 µM) in each case.

Consider GENTAMICIN, for which the MIC with Proteus vulgaris, in the assay on Bacillus spizizenii, against Escherichia coli [7] and against Staphylococcus aureus [9] was 1.56 µg/mL throughout.

As for `Oc1cccc2cccnc12` [OXYQUINOLINE], the IC50 with Pseudomonas aeruginosa [1], with Enterococcus faecalis [2], with Escherichia coli [3], with Klebsiella pneumoniae [4], in the assay with Streptococcus pneumoniae and with Salmonella enterica was 15.6 µg/mL (≈ 108 µM) in each case.

`C[C@H](c1ccccc1)N(CC(N)=O)C(=O)CN(C(=O)CN(Cc1cn(CC2CCCCC2)n[n+]1C)C(=O)CN(C(=O)CN(C(=O)CNCc1cn(CC2CCCCC2)n[n+]1C)[C@H](C)c1ccccc1)[C@H](C)c1ccccc1)[C@H](C)c1ccccc1`: the MIC in the assay on Escherichia coli [10], in the assay on Staphylococcus aureus [11], in the assay with Escherichia coli [12] and in the assay with Enterococcus faecalis [13] was over 1.6 µg/mL each time.

Regarding `C[C@H](c1ccccc1)N(CC(N)=O)C(=O)CN(C(=O)CN(Cc1cn(CCN)n[n+]1C)C(=O)CN(C(=O)CN(C(=O)CN(Cc1cn(CCN)n[n+]1C)C(=O)CN(C(=O)CN(C(=O)CNCc1cn(CCN)n[n+]1C)[C@H](C)c1ccccc1)[C@H](C)c1ccccc1)[C@H](C)c1ccccc1)[C@H](C)c1ccccc1)[C@H](C)c1ccccc1`, the MIC against Escherichia coli [10], in the assay on Staphylococcus aureus [11], in the assay on Escherichia coli [12] and against Enterococcus faecalis [13] was over 1.6 µg/mL in each case.

`C[C@H](c1ccccc1)N(CC(N)=O)C(=O)CN(C(=O)CN(Cc1cn(CCN)n[n+]1C)C(=O)CN(C(=O)CN(C(=O)CN(Cc1cn(CCN)n[n+]1C)C(=O)CN(C(=O)CN(C(=O)CN(Cc1cn(CCN)n[n+]1C)C(=O)CN(C(=O)CN(C(=O)CNCc1cn(CCN)n[n+]1C)[C@H](C)c1ccccc1)[C@H](C)c1ccccc1)[C@H](C)c1ccccc1)[C@H](C)c1ccccc1)[C@H](C)c1ccccc1)[C@H](C)c1ccccc1)[C@H](C)c1ccccc1`: the MIC in the assay on Escherichia coli [10], in the assay with Staphylococcus aureus [11], against Escherichia coli [12] and in the assay with Enterococcus faecalis [13] was over 1.6 µg/mL throughout.

In the case of `O=[N+]([O-])c1ccc(-n2cc(COc3cccc4cccnc34)nn2)cc1`, the 50% inhibitory concentration (IC50) with Pseudomonas aeruginosa [1], in the assay on Enterococcus faecalis [2], in the assay on Escherichia coli [3], in the assay with Klebsiella pneumoniae [4], with Streptococcus pneumoniae and with Salmonella enterica was 106 µg/mL (≈ 305 µM) throughout.

Take `CCn1cc(C(=O)O)c(=O)c2cc(F)c(N3CCNCC3)cc21` [NORFLOXACIN]: the zone of inhibition at 1000 µg/mL in the assay with Staphylococcus aureus [14], with Pseudomonas aeruginosa [15], in the assay on Bacillus subtilis and with Escherichia coli [16] was 2.5 mm throughout. Further, it took 9.38 µg/mL (≈ 29.4 µM) to inhibit growth in the assay on Klebsiella pneumoniae [17] (MIC).

The values above are taken from ChEMBL document CHEMBL4699440, “Comprehensive review on the anti-bacterial activity of 1,2,3-triazole hybrids” (Eur J Med Chem, 2019).
